# Test results reported in US20100143428A1, “A STABLE GLUTARALDEHYDE COMPLEX” (priority 2006, published 2010).
# Tested on: bacteria
# Assay: Residual efficacy on bacterially contaminated surfaces, duration of effect
# Type: cell-based
# Details: "as is"
# Experimental: Table 1 tabulates results of a residual efficacy test done on the product of the invention (sample number RT14) by the South African Bureau of Standards (SABS) using the European surface test method (1993), to determine the residual efficacy of the sample on bacterially contaminated surfaces.
# The surfaces of stainless steel discs (2 cm^2) were seeded with a 0.1 ml bacterial suspension containing 10^7 bacterial cells/ml and thereafter dried at 37° C. for one hour. The 0.1 ml RT14 sample was dropped onto the dried disc, ensuring that the disc was totally covered. After 24 hours, 48 hours, 7 days, 14 days and 30 days respectively, the surfaces were again seeded with a bacterial suspension. After a minute contact time, the stainless steel discs were placed in conical flasks containing 10m1 of a neutralization medium to neutralize the RT14 and the flasks were shaken to dislodge the cells from the discs. Tenfold dilutions of the flask contents were placed onto sterile petri dishes. Nutrient agar was poured onto the petri dishes, mixed with contents, and incubated at 37° C. for 2 days. Colony-forming bacterial cells were counted. Untreated stainless steel discs were used as controls.
structure (smiles),measurement,value
O=CCCCC=O [glutaraldehyde],duration of effectiveness on bacteria,up to 10 hours
